Measurements reported in paper PMC11466185, “Mechanisms and efficacy of small molecule latency-promoting agents to inhibit HIV reactivation ex vivo” (JCI Insight, 2024).

Columns and labels:
[1] = system: PBMCs; experiment: Total number of live cells (proliferation) by trypan blue staining at day 6; format: cell-based, human; settings: for Total live cell numbers (proliferation) compared with activated DMSO (in words) / Total number of live cells (Fig 6A): day 6; for Total live cell numbers (proliferation) compared with activated DMSO (in words): Figure 6A; for Fig 6B: total live cells relative to DMSO+CD3/28: DMSO+CD3/28 = 100
Protocol: Some of our candidate LPAs can block the effects of T cell activation, which could affect T cell proliferation. Therefore, we evaluated the extent to which variations in the level of infected cells may contribute to reductions in different HIV RNA transcripts. We measured the total number of viable cells (as a measure of proliferation) and the conserved U3-U5 LTR HIV DNA region (as a measure of total infection frequency) at day 6.
(A) After 6 days, the total number of live cells was measured by trypan blue staining and then normalized to the levels of the activated DMSO (% of activated DMSO). All conditions were tested in the presence of CD3^+/CD28^+ T cell–activating beads, except for the unactivated DMSO condition. Bars indicate medians, and different colors indicate individual study participants. Comparisons were performed using Wilcoxon’s signed-rank test. (B) Total cellular DNA was extracted, and the levels of U3-U5 HIV DNA were measured to quantify infection frequency at 6 days. HIV DNA levels were normalized to copies per 10^6 cells using the input of cellular DNA (assuming 1 μg of total DNA corresponds to 160,000 cells) and then normalized to the activated DMSO control (% of activated DMSO). Bars indicate medians, and different colors indicate individual study participants.

[2] = system: HIV transcripts (TAR, LLTR, Pol, PolyA, TatRev); experiment: Baseline HIV transcription without activation, PBMCs from ART-suppressed PWH, 24 hours; format: cell-based; settings: no activation
Protocol: For a selection of the compounds, we evaluated the ability to reduce baseline HIV transcription without activation. PBMCs were cultured in the presence of individual drugs in DMSO or DMSO alone as a control and harvested after 24 hours. For each drug, we tested PBMCs from at least 3 PWH, as indicated in Supplemental Figure 5B. […] Likewise, pladienolide B appeared to reduce the level of multiply spliced transcripts (33%, Supplemental Figure 5, A and B).
PBMCs were isolated from fresh venous blood from 16 ART-suppressed HIV-infected study participants using Ficoll density gradient centrifugation. The cells were seeded at 6 × 10^6 cells/well and cultured with antiretrovirals (nevirapine and indinavir) to prevent new infection. On the next day, PBMCs were activated with anti-CD3/CD28–coated beads (Invitrogen) in the presence of 20 U/mL IL-2 and individual drugs in DMSO or DMSO alone as a control. Since we were limited in the PBMC yield per study participant, different study participants were used for different experiments (such as the initial screen, dose response, different time points, and studies in activated vs. unstimulated cells). In addition, the yields of PBMCs were sometimes insufficient to test all drugs for a given question or experiment.
Total cellular DNA and RNA were extracted in parallel using Trireagent (Molecular Research Center) according to the manufacturer’s instructions, except for study participants 2147 and 2461 (Figure 4), for whom DNA and RNA were extracted using the QIAGEN AllPrep DNA/RNA/miRNA Universal Kit with on-column DNase I treatment of the RNA and the manufacturer’s modification to enhance recovery of short transcripts. RNA and DNA concentrations were measured using UV spectrophotometry (NanoDrop One, Thermo Fisher Scientific). Total initiated HIV (TAR) transcripts were quantified by a 3-step polyadenylation RT-ddPCR as described previously ([8], [84]). HIV 5′ elongated (LLTR), midtranscribed (Pol), completed (PolyA), and multiply spliced (TatRev) transcripts were quantified by a 2-step RT-ddPCR as previously described ([8]). The levels of each HIV transcript were normalized to 1 μg of total cellular RNA and expressed as a percentage of the (activated) DMSO control. To quantify virion-associated RNA in supernatant, RNA was extracted from 400 μL supernatant using Trireagent-LS (Molecular Research Center) according to the manufacturer’s instructions. Levels of U3-polyadenylated HIV RNA were measured in the supernatant by RT-ddPCR, normalized to copies/mL, and expressed as a percentage of the activated DMSO. For measuring the HIV infection frequency at day 6, the HIV DNA U3-U5 LTR region was quantified by using ddPCR as described previously ([8]). HIV DNA copies were normalized to cell numbers according to the mass of DNA input per well (calculated from the DNA concentration and input volume) ([85]).
Figure S5. CDK-inhibitors appear to decrease baseline HIV splicing even in the absence of T cell activation. Each drug was tested in PBMCs from at least three ART-suppressed study participants and PBMCs were aliquoted into wells at 6x10^6 cells/well. The cells were cultured with antiretrovirals but without activation in the presence of individual drugs in (1 picture or pasted object on this page, not shown here)
DMSO or DMSO alone as control. After 24h, total RNA was extracted and the progression through different stages of HIV transcription was quantified by measuring the levels of initiated (TAR), 5’ elongated (LLTR), mid-transcribed/unspliced (Pol), completed (PolyA) and multiply spliced (TatRev) HIV transcripts. A-B) The levels of all HIV transcripts were quantified, normalized to 1 µg of total cellular RNA, and expressed as a percent of the DMSO control (% of DMSO). A) Medians are shown, as well as the values of the individual study participants in different colors. B) The medians from panel A) are presented. The effect of each drug on the different transcripts was studied in three to six study participants, as […]

[3] = participant 156, ruxolitinib 4μM, dinaciclib 8nM, AZD4573 8nM, pladienolide B 10nM, KRIBB11 2.5μM
[4] = participant 156, ruxolitinib 4μM, dinaciclib 8nM, AZD4573 8nM, pladienolide B, KRIBB11 2.5μM
[5] = participant 163, ruxolitinib 4μM, dinaciclib 8nM, AZD4573 8nM, pladienolide B 10nM, KRIBB11 2.5μM
[6] = participant 163, ruxolitinib 4μM, dinaciclib 8nM, AZD4573 8nM, pladienolide B, KRIBB11 2.5μM
[7] = participant 2027, ruxolitinib 4μM, dinaciclib 8nM, AZD4573 8nM, pladienolide B 10nM, KRIBB11 2.5μM
[8] = participant 2027, ruxolitinib 4μM, dinaciclib 8nM, AZD4573 8nM, pladienolide B, KRIBB11 2.5μM

CNc1ccc([N+](=O)[O-])c(Nc2ccc3[nH]ncc3c2)n1 [KRIBB11]
Total live cell numbers (proliferation) compared with activated DMSO (in words) [1]: did not change proliferation rates
Fig 6B: total live cells relative to DMSO+CD3/28 ([1]; participant 2027): 80
Fig 6B: total live cells relative to DMSO+CD3/28 ([1]; participant 2147a): 78.71
Fig 6B: total live cells relative to DMSO+CD3/28 ([1]; participant 2147b): 84.85
Fig 6B: total live cells relative to DMSO+CD3/28 ([1]; participant 2256): 100
Fig 6B: total live cells relative to DMSO+CD3/28 ([1]; participant 2461): 133.29
Fig 6B: total live cells relative to DMSO+CD3/28 ([1]; participant 2747): 114.29
Total number of live cells (Fig 6A) ([1]; study participant 150a): 109.33 % of activated DMSO
Total number of live cells (Fig 6A) ([1]; study participant 156): 86.05 % of activated DMSO
Total number of live cells (Fig 6A) ([1]; study participant 163): 93.17 % of activated DMSO
Total number of live cells (Fig 6A) ([1]; study participant 2027): 77.91 % of activated DMSO
Total number of live cells (Fig 6A) ([1]; study participant 2147a): 131.05 % of activated DMSO
Total number of live cells (Fig 6A) ([1]; study participant 2147b): 144.41 % of activated DMSO
Total number of live cells (Fig 6A) ([1]; study participant 2256): 80.69 % of activated DMSO
Total number of live cells (Fig 6A) ([1]; study participant 2461): 93.23 % of activated DMSO
Total number of live cells (Fig 6A) ([1]; study participant 2747): 107.08 % of activated DMSO
HIV transcription levels in the absence of T cell activation (in words) ([2]; 24 hours, at least 3 PWH): little effect
LLTR HIV transcripts (DMSO = 100) [2, 3]: 90.95
Pol HIV transcripts (DMSO = 100) [2, 3]: 85.77
PolyA HIV transcripts (DMSO = 100) [2, 3]: 144.03
Tat-Rev HIV transcripts (DMSO = 100) [2, 3]: 735.63
PolyA/LLTR ratio (DMSO = 1) [2, 4]: 1.584
TatRev/PolyA ratio (DMSO = 1) [2, 4]: 5.108
LLTR HIV transcripts (DMSO = 100) [2, 5]: 72.79
Pol HIV transcripts (DMSO = 100) [2, 5]: 89.89
PolyA HIV transcripts (DMSO = 100) [2, 5]: 74.5
Tat-Rev HIV transcripts (DMSO = 100) [2, 5]: 0
PolyA/LLTR ratio (DMSO = 1) [2, 6]: 1.0234
TatRev/PolyA ratio (DMSO = 1) [2, 6]: 0
LLTR HIV transcripts (DMSO = 100) [2, 7]: 71.57
Pol HIV transcripts (DMSO = 100) [2, 7]: 64.26
PolyA HIV transcripts (DMSO = 100) [2, 7]: 97.36
TAR HIV transcripts (DMSO = 100) [2, 7]: 144.19
LLTR/TAR ratio (DMSO = 1) [2, 8]: 0.4964
PolyA/LLTR ratio (DMSO = 1) [2, 8]: 1.36

CO[C@H]([C@@H](C)[C@H]1O[C@]1(C)C[C@H](C)/C=C/C=C(\C)[C@H]1O[C@@H](CC(=O)O)CC[C@@H]1C)[C@@H](C)O [herboxidiene]
Total live cell numbers (proliferation) compared with activated DMSO (in words) [1]: did not change proliferation rates
Fig 6B: total live cells relative to DMSO+CD3/28 ([1]; participant 150b): 68
Fig 6B: total live cells relative to DMSO+CD3/28 ([1]; participant 1379): 22.5
Fig 6B: total live cells relative to DMSO+CD3/28 ([1]; participant 2027): 98.18
Fig 6B: total live cells relative to DMSO+CD3/28 ([1]; participant 2147a): 103.96
Fig 6B: total live cells relative to DMSO+CD3/28 ([1]; participant 2147b): 121.98
Fig 6B: total live cells relative to DMSO+CD3/28 ([1]; participant 2161): 132.2
Fig 6B: total live cells relative to DMSO+CD3/28 ([1]; participant 2256): 89.47
Fig 6B: total live cells relative to DMSO+CD3/28 ([1]; participant 2461): 80.23
Fig 6B: total live cells relative to DMSO+CD3/28 ([1]; participant 5557): 117.65
Total number of live cells (Fig 6A) ([1]; study participant 1379): 82.06 % of activated DMSO
Total number of live cells (Fig 6A) ([1]; study participant 2027): 34.68 % of activated DMSO
Total number of live cells (Fig 6A) ([1]; study participant 2147a): 115.89 % of activated DMSO
Total number of live cells (Fig 6A) ([1]; study participant 2147b): 188.02 % of activated DMSO
Total number of live cells (Fig 6A) ([1]; study participant 2161): 72.75 % of activated DMSO
Total number of live cells (Fig 6A) ([1]; study participant 2256): 87.5 % of activated DMSO
Total number of live cells (Fig 6A) ([1]; study participant 2461): 32.33 % of activated DMSO
Total number of live cells (Fig 6A) ([1]; study participant 5557): 99.29 % of activated DMSO

COc1ccc(-c2cc(=O)c3c(O)cc(O)c(-c4cc(-c5cc(=O)c6c(O)cc(O)cc6o5)ccc4OC)c3o2)cc1 [isoginkgetin]
Total live cell numbers (proliferation) compared with activated DMSO (in words) [1]: significantly lower

O=c1c(O)c(-c2ccc(O)c(O)c2)oc2cc(O)cc(O)c12 [quercetin]
Total live cell numbers (proliferation) compared with activated DMSO (in words) [1]: did not change proliferation rates

C=CCNC1=C2C[C@@H](C)C[C@H](OC)[C@H](O)[C@@H](C)/C=C(\C)[C@H](OC(N)=O)[C@@H](OC)/C=C\C=C(/C)C(=O)NC(=CC1=O)C2=O [tanespimycin]
Total live cell numbers (proliferation) compared with activated DMSO (in words) [1]: significantly lower

CC(C)[C@]12O[C@H]1[C@@H]1O[C@]13[C@]1(O[C@H]1C[C@H]1C4=C(CC[C@@]13C)C(=O)OC4)[C@@H]2O [triptolide]
Total live cell numbers (proliferation) compared with activated DMSO (in words) [1]: significantly lower

mithramycin A
Total live cell numbers (proliferation) compared with activated DMSO (in words) [1]: significantly lower
